# Measurements published in patent publication US9222059B2, “Cleaning formulations with improved surfactant solubility and methods of production and use thereof” (The Sun Products Corporation, priority 2011, dated 2015).
# Where two headings read alike, the source gives them in different places.
# Key:
# [1] = Storage stability (Pass/Fail) of base liquid detergent formulation with 9.5% EMES plus candidate hydrotrope; format: physicochemical; set-up: key: a sample was said to “Pass” if it remained a clear isotropic liquid at the indicated challenge temperature; a sample was said to “Fail” if it showed any of the above-described evidence of instability or insolubility
# [2] = Rheology, 40 mm circular plate rheometer (flowability/pumpability); format: physicochemical; details: agent at about 5% to about 8%; results not shown
# Procedure: A solution of 35% EMES+7% C8 amine oxide in water was prepared as described in the foregoing examples. […] The rheology of the solution was then tested using a 40 mm circular plate rheometer. A conditioning step was performed which brought the plate to 25° C., and a pre-shear step was carried out at 0.7958 Pa for 30 sec, and then the device was equilibrated until it reached 0 velocity. Then the main continuous ramp step began on the solution, which ran for 1 minute, and the shear stress was increased from 0.1 to 250 Pa. A total of 15 data points were collected, and the device remained at 25° C. the entire time. […] Solutions of about 40% or more EMES, however, required a slightly higher amine oxide content to remain flowable and pumpable, but the shear stress necessary was inordinately high. Therefore, for applications in which it may be desirable to pump the surfactant formulation, it is preferable to use 35% or lower EMES in the formulation.
# We also evaluated whether or not inclusion of one or more additional components in the solution would improve the pumpability of high concentration EMES formulations. Specifically, ethanol or glycerine at about 5% to about 8% were included in formulations containing 35% EMES/7% C8 amine oxide.
# [3] = Interfacial surface tension / CMC (detergency), pendant drop method, Kruss DSA100; format: physicochemical; details: 0 to 250 ppm in water; FIG. 1
# From the text: First, we addressed the fact that MES has typically been thought of as a component that can show poor detergency. A surfactant's cleaning performance (i.e., detergency) can be measured directly by an examination of its interfacial tension (IFT) as a function of its critical micelle concentration (CMC, the concentration where the surfactant's monomers arrange themselves in a spherical shape so that their hydrophobic tails can trap oil). We therefore wanted to examine the suitability of various surfactants, including various types of MES, for use in reducing surface tension (i.e., detergency) over various surfactant concentrations. Surfactants were titrated in water at concentrations from 0 to 250 ppm (which is typical of “in use” conditions for surfactant formulations in household laundry methods), and the interfacial surface tension of these solutions was measured as a function of concentration using the pendant drop method on a Kruss DSA100 drop shape analyzer. […] As one of ordinary skill will readily understand, other tensiometric methods of determining interfacial surface tension can also be used, for example using a Du Nouy ring, drop volume, or bubble tensiometer; suitable instrumentation and methods for measuring surface tension using such approaches are well-known in the art. […]
# [4] = Liquid stability / solubility of high-concentration EMES in water with C8 amine oxide; details: 25% EMES, about 2% C8 AO; FIG. 6b
# Procedure: Similar approaches were taken for examining the impact of increasing EMES concentration on liquid stability (i.e., examining the solubility of the surfactant in solution at a given concentration), and the ability of hydrotropes to improve EMES solubility. Specifically, samples of EMES in water were prepared at different concentrations and observed as described above for any evidence of instability or poor solubility.
# [5] = material 2.00 % w/v in base detergent with 9.5% EMES, 3 cycles, -20° C.
# [6] = material 2.00 % w/v in base detergent with 9.5% EMES, 52 weeks
# [7] = material 2.00 % w/v in base detergent with 9.5% EMES, 1 week
# [8] = material 2.00 % w/v in base detergent with 9.5% EMES, 12 weeks
molecule,measurement,setting,value
"C[N+](C)(C)CC(=O)O [Tomamine LH, Betaine]",40° F. storage,[1],Fail
same,105° F. storage,[1],Pass
same,125° F. storage,[1],Pass
same,Freeze/Thaw storage,[1]; [5],Pass
same,Room Temp. storage,[1]; [6],Pass
Akkylglucoside [AG6206],40° F. storage,[1],Fail
same,105° F. storage,[1],Pass
same,125° F. storage,[1],Pass
same,Freeze/Thaw storage,[1]; [5],Pass
same,Room Temp. storage,[1]; [6],Pass
"Glycerine (propane 1,2,3-triol) [reference compound]",flowability of 35% EMES/7% C8 amine oxide with added agent,[2],worse
same,40° F. storage,[1],Fail
same,105° F. storage,[1],Pass
same,125° F. storage,[1],Pass
same,Freeze/Thaw storage,[1],Pass
same,Room Temp. storage,[1],Pass
"CCO [Ethanol, Ethyl alcohol, reference compound]",flowability of 35% EMES/7% C8 amine oxide with added agent,[2],worse
same,125° F. storage,[1]; [7],Pass
same,Freeze/Thaw storage,[1]; [5],Pass
same,40° F. storage,[1]; [8],Fail
same,105° F. storage,[1]; [8],Pass
same,Room Temp. storage,[1]; [6],Pass
"CCCCCCCCCCCC(=O)OCCOCCOCCOCCOCCOCCOCCOCCOCCOCCOCCOCCOCCOCCOCCOCCOCCOCCOCCOCCOCC(OCCOCCOCCOCCOCCOCCOCCOCCOCCOCCOCCOCCOCCOCCOCCOCCOCCOCCOCCOCCO)C1OCC(OCCOCCOCCOCCOCCOCCOCCOCCOCCOCCOCCOCCOCCOCCOCCOCCOCCOCCOCCOCCO)C1OCCOCCOCCOCCOCCOCCOCCOCCOCCOCCOCCOCCOCCOCCOCCOCCOCCOCCOCCOCCO (stereo not shown) [Tween 20, Polysorbate 20]",40° F. storage,[1],Fail
same,105° F. storage,[1],Pass
same,125° F. storage,[1],Pass
same,Freeze/Thaw storage,[1],Pass
same,Room Temp. storage,[1],Pass
"CCCCCCCC[N+](C)(C)[O-] [Synthetic C8 3853-01, Octyl dimethyl amine oxide]",40° F. storage,[1],Pass
same,105° F. storage,[1],Pass
same,125° F. storage,[1],Pass
same,Freeze/Thaw storage,[1]; [5],Pass
same,Room Temp. storage,[1]; [6],Pass
"CC(O)CO (stereo not shown) [Propylene glycol, Propylene glycol (1,2-propane diol), reference compound]",125° F. storage,[1]; [7],Pass
same,Freeze/Thaw storage,[1]; [5],Pass
same,40° F. storage,[1]; [8],Fail
same,105° F. storage,[1]; [8],Pass
same,Room Temp. storage,[1]; [6],Pass
Sodium xylene sulfonate [reference compound],40° F. storage,[1],Fail
same,105° F. storage,[1],Pass
same,125° F. storage,[1],Pass
same,Freeze/Thaw storage,[1],Pass
same,Room Temp. storage,[1],Pass
Lauramine oxide [Ammonyx LO],40° F. storage,[1],Fail
same,105° F. storage,[1],Pass
same,125° F. storage,[1],Pass
same,Freeze/Thaw storage,[1]; [5],Pass
same,Room Temp. storage,[1]; [6],Pass
Methyl ester sulfonate [MES],"critical micelle concentration (CMC), compared with LAS, SLES",[3],reaches its CMC the quickest
same,"interfacial tension (IFT), compared with LAS, SLES",[3],lowest IFT at each concentration measured
"CCCCCCCCCC[N+](C)(C)[O-] [Genamino x DC40, Decyl dimethyl amine oxide]",40° F. storage,[1],Fail
same,105° F. storage,[1],Pass
same,125° F. storage,[1],Pass
same,Freeze/Thaw storage,[1]; [5],Pass
same,Room Temp. storage,[1]; [6],Pass
"CCCCCCCC[N+](C)(C)[O-] [C8 AO, octyl dimethyl amine oxide]",appearance of EMES solution with hydrotrope,[4],"nearly clear, isotropic solution"
